Results published in patent US7635708B2, “Methods and pharmaceutical compositions for inhibiting tumor cell growth” (Dana-Farber Cancer Institute, priority 1996, dated 2009).
Where two headings read alike, the source gives them in different places.

Assays:
NIH-PPARγ cells [1] = conditions: at the concentrations used (pioglitazone 5 μM, BRL49653 1 μM)
Method: 48 hr after transfection viral supernatants were collected and NIH3T3 cells were infected at 50% confluence with equal titers of recombinant virus. The supernatants were applied to the cells in DMEM containing 10% cosmic calf serum (Hyclone) and 4 μg/ml of polybrene. 24 hr after infection, cells were split and plated in DMEM containing 10% calf serum and 2 μg/ml puromycin to select infected cells. NIH-3T3 cell lines infected with empty vector or with viral expression vectors containing wild type or mutant forms of PPARγ cDNA as well as HIB1B and 3T3-F442A cell lines were cultured in DMEM containing 10% cosmic calf serum.
The same number of NIH-PPARγ, NIH-vector or HIB1B cells were cultured either in the presence (+) or absence (−) of PPARγ ligands. Cell numbers were determined at the indicated time points. The effect of ligands on cell growth is represented as percentage decrease in cell numbers in the treated plates relative to untreated control plates.

LS857 cells = assay: Adipocyte differentiation of primary liposarcoma cells LS857; type: cell-based, human
Method: (§1) Primary liposarcoma cells were isolated from selected freshly harvested tumors as described previously (Fletcher, J. A. et al. (1991) NEJM 324:436-443) and references therein. Primary cells were plated at a density of at least 2×10^5 cells/ml and cultured in 60 mm dishes in RPMI containing 15% Cosmic Calf Serum (Hyclone) and 5 μ/ml insulin. […] The NIH-PPARγ and NIH-vector cells were derived by retroviral infection as described (Tontonoz, P. et al., (1994) supra). Differentiated cells were stained for neutral lipid with Oil Red-O (Green, H. and Kehinde, O. (1974) Cell 1:113-116). BrdU labeling was performed using the labeling kit (Boehringer Mannheim) according to the manufacturers instructions.
Liposarcomas have presumably acquired one or more genetic defects that interferes with the course of normal adipocyte development (Crozat, A. et al., (1993) Nature 363:640-644; Fletcher, J. A. et al., (1991) supra). […]
When cultured in the presence of fetal bovine serum and insulin, conditions permissive for adipocyte differentiation, all three cell lines maintain a fibroblastic morphology. […] This experiment was performed at least twice with each cell strain with quantitatively and qualitatively similar results. […]

NIH-vector cells [2] = assay: Adipocytic differentiation (percent lipid-containing cells) of NIH-vector cells; type: cell-based; conditions: for percent lipid-containing cells: NIH-vector, confluent cells, 7 days, 1 μM pioglitazone, 50 nM LG268
Method: as §1
We hypothesized that simultaneous exposure of competent cells to both PPARγ and R×R-specific ligands might provide a stronger adipogenic signal than a PPARγ ligand alone. The ability of the R×R-specific ligand LG268 to promote adipocyte differentiation was investigated using NIH-3T3 fibroblasts that express PPARγ from a retroviral vector (Tontonoz, P. et al. (1994) supra). We have previously shown that wild-type NIH-3T3 cells express R×Rα but not PPARγ. […] Similar results were obtained with the preadipocyte cell lines 3T3-L1 and 3T3-F442A which express both PPARγ and R×Rα (data not shown).
(§2) Extent of adipocytic differentiation is indicated as the percentage of lipid-containing cells.

NIH-PPARγ cells [3] = assay: Adipocytic differentiation (percent lipid-containing cells) of NIH-PPARγ cells; type: cell-based
Method: (§3) BrdU labeling was performed using the labeling kit (Boehringer Mannheim) according to the manufacturers instructions.
as §2

NIH-PPARγ cells [4] = tested on: NIH-PPARγ cells
Method: BrdU incorporation experiment was performed as described in the protocol provided by the supplier (Boehringer Mannheim Biochemical). Briefly, cells grown on coverslips were labeled with 10 μM BrdU for 1 hr. Samples were washed and fixed with ethanol-glycine buffer and incubated with anti-BrdU monoclonal antibody. After incubation with anti-mouse-Ig-alkaline phosphatase followed by the substrate reaction, bound anti-BrdU antibody was visualized by light microscopy.
Cells undergoing DNA synthesis during exposure to BrdU were determined by immunohistochemical staining and considered as BrdU positive. The data represents the average of two independent experiments in which approximately 400 cells were counted per sample.

3T3-F442A preadipocytes = assay: BrdU incorporation, 3T3-F442A preadipocytes; type: cell-based
Description: (§4) […]. […] […].

[5] = tested on: human liposarcoma cells (LS 857); assay: BrdU labeling and lipid staining of LS857 liposarcoma cells after induced differentiation (growth arrest); type: cell-based
NIH-vector cells [6] = assay: BrdU incorporation, NIH-vector cells; type: cell-based
Description: as §4

HIB1B cells [7] = assay: BrdU incorporation, HIB1B cells; type: cell-based, mice
Description: as §4

aP2 and adipsin = assay: Northern analysis of adipocyte-specific markers in LS857 liposarcoma cells; type: cell-based, human; conditions: Northern blotting
LS175 cells = assay: Adipocyte differentiation of primary liposarcoma cells LS175; type: cell-based, human; conditions: 10 μM, 7 days
[8] = tested on: primary liposarcoma cells; assay: Adipocyte differentiation of primary cells isolated from three human liposarcomas (LS857, LS175, LS707); type: cell-based; conditions: 7 days (pioglitazone 10 μM)
Method: as §3
To address this possibility, primary cells isolated from three human liposarcomas were cultured in vitro (see Materials and Methods). Primary cell strains LS857 and LS175 were derived from well differentiated tumors and LS707 was derived from a myxoid tumor (see table 2). […] A primary leiomyosarcoma cell line LM203 was cultured as a control. To confirm that these cultures consisted of malignant tumor-derived cells, cytogenetic analysis was performed.

[9] = tested on: LM203 lieomyosarcoma cells; assay: Lipid accumulation in primary leiomyosarcoma cell line LM203 (control); type: cell-based, human; conditions: which do not express PPARγ
HIB1B cells [10] = assay: Adipose cell tumors from HIB1B cells implanted in nude mice; type: in vivo; conditions: for Tumor volume (mean (SD)): 0.2% mixture with powder food
Method: HIB1B cells (2×10^6 cells/animal) were injected subcutaneously to the upper back of twenty four male nude mice (7 weeks NCR […]). Thirteen days after injection, mice were treated with troglitazone (0.2% mixture with powder food). The development of tumor volume (measured in mm^3) was determined at days 14, 19 and 26 after troglitazone treatment compared to untreated controls. Each point represents the mean±[…] (SD) from 12 mice (except the last point, where n=11) treated or untreated with troglitazone for the indicated time intervals. To evaluate changes in tumor size, mean (SD) from 11-12 cases for each group of animal were examined to ensure an 85% chance of detecting a statistically significant difference (assuming a 2-sided sample t-test). […] Points A-C and D-F represent untreated and troglitazone-treated animals, respectively. Each point represents the mean±standard deviation from 12 mice (except the last point, where n=11). Statistically significant decreases in tumor volume were detected in implanted mice treated with troglitazone compared to untreated controls. […] The tumor volume was determined after 14, 19 and 26 days of treatment. Volumes are indicated with and without outlier points in each group of animals. A comparison of the tumor volume by two-sided 2-sample t-test after 26 days of treatment indicates p=0.0019 (without outlier); p=0.037 (with outlier). To evaluate the tumor increase over time, repeated measures analysis of variance were determined, p=0.0014 without outlier; p=0.044 with outlier.

[11] = LS857, pioglitazone withdrawn 48 hours, then BrdU 48 hours

Structure (SMILES): CN(CCOc1ccc(CC2SC(=O)NC2=O)cc1)c1ccccn1 (stereo not shown) [BRL49653, rosiglitiazone]
- cytotoxic effects (NIH-PPARγ cells [1]): No obvious cytotoxic effects

Structure (SMILES): Cc1cc2c(cc1C1(c3ccc(C(=O)O)cn3)CC1)C(C)(C)CCC2(C)C [LG268]
- adipocyte differentiation of LS857 cells (LS857 cells; 50 nM LG268, 10 μM pioglitazone, alone or simultaneously): significant degree of adipocyte differentiation
- adipogenic effect on NIH-vector cells (NIH-vector cells [2]; NIH-vector cells): no effect
- percent lipid-containing cells (NIH-vector cells [2]): 0%
- percent lipid-containing cells (NIH-PPARγ cells [3]; NIH-PPARγ, confluent cells, 7 days, 1 μM pioglitazone, 50 nM LG268): 50-65%
- stimulation of adipocyte differentiation (NIH-PPARγ cells [3]; confluent NIH-PPARγ cells, 7 days, 50 nM LG268, 1 μM pioglitazone): significant stimulation of adipocyte differentiation

Structure (SMILES): CCc1ccc(CCOc2ccc(CC3SC(=O)NC3=O)cc2)nc1 (stereo not shown) [pioglitazone, 5-[4-[2-(5-ethyl-2-pyridyl)-ethoxy]benzyl]-2,4-thiazolidinedione]
- degree of morphologically recognizable differentiation (LS857 cells; LS 857 cells, 10 μM, 7 days): 40%
- percent lipid-containing cells (NIH-vector cells [2]): 0%
- BrdU positive % (NIH-PPARγ cells [4]): 9%
- decrease in the BrdU incorporation rate (3T3-F442A preadipocytes; 3T3-F442A preadipocytes, after 5 days of treatment): 80%
- BrdU positive % (3T3-F442A preadipocytes; 3T3-F442A, 5 μM pioglitazone for 5 days, BrdU pulse 1 hour): 14%
- cells containing lipid that stain positive for BrdU ([5]; LS857, of those cells containing lipid): 2%
- cells containing visible cytoplasmic lipid [5, 11]: 35%
- cells stained positive for BrdU incorporation [5, 11]: 28%
- change of BrdU incorporation rate (NIH-vector cells [6]; NIH-vector cells, 5 days of treatment): did not change
- BrdU positive % (NIH-vector cells [6]; NIH-vector, 5 μM pioglitazone for 5 days, BrdU pulse 1 hour): 43%
- BrdU positive % (HIB1B cells [7]; 5 μM pioglitazone for 5 days, BrdU pulse 1 hour): 11%
- decrease of BrdU incorporation into newly synthesized DNA (HIB1B cells [7]; after 5 days of treatment): 85%
- induction of the mRNAs encoding aP2 and adipsin (aP2 and adipsin): induction of two markers of terminal adipocyte differentiation
- degree of morphologically recognizable differentiation (LS175 cells): 75%
- induction of differentiation (lipid accumulation, adipocyte morphology) [8]: readily accumulated lipid and adopted a morphology characteristic of mature cultured adipocytes
- lipid accumulation [9]: No lipid accumulation
- percent lipid-containing cells (NIH-PPARγ cells [3]): 60-70%

Structure (SMILES): Cc1c(C)c2c(c(C)c1O)CCC(C)(COc1ccc(CC3SC(=O)NC3=O)cc1)O2 (stereo not shown) [troglitazone, 5-[[4-[(3,4-dihydro-6-hydroxy-2,5,7,8-tetramethyl-2H-1-benzopyran-2-yl)methoxy]phenyl]methyl]-2,4-thiazolidinedione]
- induction of differentiation (lipid accumulation, adipocyte morphology) [8]: Induction of differentiation was also observed
- size of adipose tumors in nude mice compared to untreated controls (HIB1B cells [10]; 14, 19 and 26 days of treatment): effective in reducing the size of adipose tumors
- Tumor volume (mean (SD)) (HIB1B cells [10]; 14 days of treatment, w outlier): 403(182) mm^3
- Tumor volume (mean (SD)) (HIB1B cells [10]; 14 days of treatment, w/o outlier): 361(110) mm^3
- Tumor volume (mean (SD)) (HIB1B cells [10]; 19 days of treatment, w outlier): 990(665) mm^3
- Tumor volume (mean (SD)) (HIB1B cells [10]; 19 days of treatment, w/o outlier): 830(389) mm^3
- Tumor volume (mean (SD)) (HIB1B cells [10]; 26 days of treatment, w outlier): 2601(2270) mm^3
- Tumor volume (mean (SD)) (HIB1B cells [10]; 26 days of treatment, w/o outlier): 2032(1179) mm^3
